Measurements as given in patent US11931431B2, “PSMA-targeted radiopharmaceutical for diagnosing and treating prostate cancer” (FUTURECHEM CO., LTD, priority 2018, dated 2024).
“Also recorded” adds a separate entry of the source.

Key:
[1] = Measurement of lipophilicity (log P), n-octanol/PBS; assay type: physicochemical; conditions: mean of 3
Procedure: Each of the [^68Ga]1 compounds (1˜2 mci) synthesized in Example 14 was transferred into a vial, and the solvent was removed, to which 1 mL of n-octanol and 1 mL of PBS were added, and the lid was well closed, followed by mixing with a vortex for 1 minute. After the layers were separated, 0.1 mL was taken from each layer and the radiation dose was measured. The radiation dose was measured by repeating 3 times, and the mean value was obtained.

[2] = tested on: PSMA^+ PC-3 PIP tumors; assay: MicroPET/CT imaging of mice transplanted with prostate cancer cell lines; assay type: in vivo, nude mouse
Procedure: A tumor model was prepared by subcutaneously injecting PSMA^+ PC-3 PIP cells (a human prostate cancer cell line) to the right side of the nude mouse hind leg. Each of the ^68Ga-labeled compounds [^68Ga]1e, [^68Ga]1g, [^68Ga]1h and [^68Ga]1k was intravenously injected with 5.5 to 6.5 MBq (148-175 μCi/200 μL), and PET/CT images were obtained using small animal INVEON PET/CT (Siemens medical solutions, Knoxville, USA) for 60 minutes. After 150 minutes, 270 minutes, and 390 minutes, PET/CT images were also obtained for 30 minutes. The obtained PET/CT image results were quantitatively analyzed using Inveon™ Research Workplace (IRW).
FIGS. 1, 2, 3, and 4 are graphs showing the quantitative analysis results of MicorPET/CT images for [^68Ga]1e, [^68Ga]1g, [^68Ga]1h, and [^68Ga]1k in % injected dose (ID)/g, and summarized in Tables 3, 4, 5, and 6, respectively.

[3] = tested on: PSMA^+ PC-3 PIP tumors; assay: Biodistribution test with mice transplanted with prostate cancer cell lines (gamma counter); assay type: in vivo, nude mouse; conditions: 5 hours after injection, gamma counter
Procedure: After 270 minutes of [^68Ga]1e and [^68Ga]1g injection, microPET/CT images were obtained for 30 minutes, and then each organ (blood, muscle, fat, heart, lung, liver, spleen, stomach, intestine, kidney, bone and tumor) was extracted and the radioactivity thereof was measured using a gamma counter.

SMILES: O=C(O)CCC(NC(=O)NC(CCCCN(CC(=O)O)C(=O)COCCOCCNC(=O)CN1CCN2CCN3CCN(CC1)CC(=O)[O][68Ga]([O]C(=O)C2)[O]C(=O)C3)C(=O)O)C(=O)O (stereo not drawn) [[^68Ga]1e]
- logP [1]: −2.88
- intake of mouse organ: Bladder ([2]; 10 min after injection): 19.37 ± 0.32 % ID/g
- intake of mouse organ: Kidney ([2]; 10 min after injection): 21.37 ± 9.18 % ID/g
- intake of mouse organ: Liver ([2]; 10 min after injection): 4.76 ± 0.42 % ID/g
- intake of mouse organ: Muscle ([2]; 10 min after injection): 1.46 ± 0.14 % ID/g
- intake of mouse organ: Tumor (PIP) ([2]; 10 min after injection): 2.33 ± 0.36 % ID/g
- intake of mouse organ: Bladder ([2]; 20 min after injection): 47.31 ± 7.34 % ID/g
- intake of mouse organ: Kidney ([2]; 20 min after injection): 10.96 ± 4.32 % ID/g
- intake of mouse organ: Liver ([2]; 20 min after injection): 1.96 ± 0.22 % ID/g
- intake of mouse organ: Muscle ([2]; 20 min after injection): 1.38 ± 0.11 % ID/g
- intake of mouse organ: Tumor (PIP) ([2]; 20 min after injection): 3.64 ± 0.49 % ID/g
- intake of mouse organ: Bladder ([2]; 30 min after injection): 55.82 ± 12.46 % ID/g
- intake of mouse organ: Kidney ([2]; 30 min after injection): 10.88 ± 7.09 % ID/g
- intake of mouse organ: Liver ([2]; 30 min after injection): 1.29 ± 0.05 % ID/g
- intake of mouse organ: Muscle ([2]; 30 min after injection): 0.95 ± 0.13 % ID/g
- intake of mouse organ: Tumor (PIP) ([2]; 30 min after injection): 4.08 ± 0.60 % ID/g
- intake of mouse organ: Bladder ([2]; 40 min after injection): 60.63 ± 15.48 % ID/g
- intake of mouse organ: Kidney ([2]; 40 min after injection): 14.92 ± 13.57 % ID/g
- intake of mouse organ: Liver ([2]; 40 min after injection): 1.00 ± 0.03 % ID/g
- intake of mouse organ: Muscle ([2]; 40 min after injection): 0.61 ± 0.05 % ID/g
- intake of mouse organ: Tumor (PIP) ([2]; 40 min after injection): 4.44 ± 0.48 % ID/g
- intake of mouse organ: Bladder ([2]; 50 min after injection): 64.24 ± 12.76 % ID/g
- intake of mouse organ: Kidney ([2]; 50 min after injection): 15.84 ± 15.60 % ID/g
- intake of mouse organ: Liver ([2]; 50 min after injection): 0.80 ± 0.02 % ID/g
- intake of mouse organ: Muscle ([2]; 50 min after injection): 0.53 ± 0.05 % ID/g
- intake of mouse organ: Tumor (PIP) ([2]; 50 min after injection): 4.56 ± 1.03 % ID/g
- intake of mouse organ: Bladder ([2]; 60 min after injection): 67.80 ± 8.56 % ID/g
- intake of mouse organ: Kidney ([2]; 60 min after injection): 15.72 ± 16.29 % ID/g
- intake of mouse organ: Liver ([2]; 60 min after injection): 0.65 ± 0.04 % ID/g
- intake of mouse organ: Muscle ([2]; 60 min after injection): 0.35 ± 0.05 % ID/g
- intake of mouse organ: Tumor (PIP) ([2]; 60 min after injection): 4.73 ± 0.98 % ID/g
- intake of mouse organ: Bladder ([2]; 150 min after injection): 31.85 ± 35.57 % ID/g
- intake of mouse organ: Kidney ([2]; 150 min after injection): 0.70 ± 0.02 % ID/g
- intake of mouse organ: Liver ([2]; 150 min after injection): 0.06 ± 0.01 % ID/g
- intake of mouse organ: Muscle ([2]; 150 min after injection): 0.02 ± 0.01 % ID/g
- intake of mouse organ: Tumor (PIP) ([2]; 150 min after injection): 4.20 ± 0.42 % ID/g
- intake of mouse organ: Bladder ([2]; 270 min after injection): 1.45 ± 1.62 % ID/g
- intake of mouse organ: Kidney ([2]; 270 min after injection): 0.41 ± 0.16 % ID/g
- intake of mouse organ: Liver ([2]; 270 min after injection): 0.03 ± 0.01 % ID/g
- intake of mouse organ: Muscle ([2]; 270 min after injection): 0.01 ± 0.01 % ID/g
- intake of mouse organ: Tumor (PIP) ([2]; 270 min after injection): 4.05±0.64 % ID/g
- excretion, in words ([2]; MicroPET/CT): rapidly excreted through the kidney and bladder; also recorded: rapidly excreted out of the body
- Radioactivity in mouse organ: Blood [3]: 0.01 ± 0.00 % ID/g
- Radioactivity in mouse organ: Bone [3]: 0.00 ± 0.00 % ID/g
- Radioactivity in mouse organ: Fat [3]: 0.01 ± 0.00 % ID/g
- Radioactivity in mouse organ: Heart [3]: 0.01 ± 0.00 % ID/g
- Radioactivity in mouse organ: Intestine [3]: 0.09 ± 0.08 % ID/g
- Radioactivity in mouse organ: Kidney [3]: 0.82 ± 0.51 % ID/g
- Radioactivity in mouse organ: Liver [3]: 0.02 ± 0.01 % ID/g
- Radioactivity in mouse organ: Lung [3]: 0.02 ± 0.01 % ID/g
- Radioactivity in mouse organ: Muscle [3]: 0.01 ± 0.00 % ID/g
- Radioactivity in mouse organ: PSMA + PIP (tumor intake rate) [3]: 7.34 ± 5.49 % ID/g
- Radioactivity in mouse organ: Spleen [3]: 0.01 ± 0.00 % ID/g
- Radioactivity in mouse organ: Stomach [3]: 0.02 ± 0.02 % ID/g
